Test results as given in ChEMBL document CHEMBL1201862, “PubChem BioAssay data set” (2004).
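Dose response: 5 concentrations. Exposure: 48 h. Format: 96-well plates. Endpoint: linear interpolation; highest concentration if not reached. GI50 is the concentration that inhibits growth by half.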 Active and inactive are the calls of the source. Rule as the data show it: active = GI50 up to about 1.1 µM and inactive = higher.

Tests used:
Assay in all cases: NCI anticancer screen, dose series, 48 h
HL-60 = test system: HL-60
A549 = test system: A549
UACC-62 = test system: UACC-62
OVCAR-4 = test system: OVCAR-4
HT-29 = test system: HT-29
NCI-H460 = test system: NCI-H460
K562 = test system: K562
SNB-19 = test system: SNB-19
OVCAR-8 = test system: OVCAR-8
RPMI-8226 = test system: RPMI-8226
NCI/ADR-RES = test system: NCI/ADR-RES
TK-10 = test system: TK-10
SK-OV-3 = test system: SK-OV-3
HCT-15 = test system: HCT-15
SK-MEL-5 = test system: SK-MEL-5
PC-3 = test system: PC-3
MDA-MB-435 = test system: MDA-MB-435
ACHN = test system: ACHN
SF-539 = test system: SF-539
BT-549 = test system: BT-549
HCC 2998 = test system: HCC 2998
U-251 = test system: U-251
SR = test system: SR
SW-620 = test system: SW-620
NCI-H522 = test system: NCI-H522
MDA-MB-231 = test system: MDA-MB-231
SF-295 = test system: SF-295
COLO 205 = test system: COLO 205
HCT-116 = test system: HCT-116
SK-MEL-28 = test system: SK-MEL-28
HOP-62 = test system: HOP-62
M14 = test system: M14
SN12C = test system: SN12C
UACC-257 = test system: UACC-257
NCI-H23 = test system: NCI-H23
KM12 = test system: KM12
DU-145 = test system: DU-145
RXF 393 = test system: RXF 393
Hs-578T = test system: Hs-578T
786-0 = test system: 786-0
SNB-75 = test system: SNB-75
MDA-N = test system: MDA-N
MOLT-4 = test system: MOLT-4
MCF7 = test system: MCF7
IGROV-1 = test system: IGROV-1
SF-268 = test system: SF-268
UO-31 = test system: UO-31
EKVX = test system: EKVX
CCRF-CEM = test system: CCRF-CEM
NCI-H226 = test system: NCI-H226
OVCAR-3 = test system: OVCAR-3
T47D = test system: T47D
A498 = test system: A498
Malme-3M = test system: Malme-3M
CAKI-1 = test system: CAKI-1
SK-MEL-2 = test system: SK-MEL-2
OVCAR-5 = test system: OVCAR-5
LOX IMVI = test system: LOX IMVI

Measured: GI50

COc1ccc(N2C(=O)C3c4[nH]c5cc(Cl)ccc5c4C4CCC(C(C)(C)C)CC4C3C2=O)cc1 (stereo not given)
87.5 µM: HCT-15
inactive: HL-60 26.9 µM | A549 60.7 µM | UACC-62 > 100 µM | OVCAR-4 94.4 µM | HT-29 31.7 µM | NCI-H460 35.9 µM | K562 33.6 µM | SNB-19 > 100 µM | OVCAR-8 > 100 µM | RPMI-8226 53.2 µM | NCI/ADR-RES > 100 µM | TK-10 > 100 µM | SK-OV-3 > 100 µM | SK-MEL-5 > 100 µM | PC-3 29.2 µM | MDA-MB-435 > 100 µM | ACHN 61.1 µM | SF-539 96.8 µM | BT-549 > 100 µM | HCC 2998 44 µM | U-251 95.1 µM | SR 12.6 µM | SW-620 69.8 µM | NCI-H522 > 100 µM | MDA-MB-231 > 100 µM | SF-295 > 100 µM | COLO 205 > 100 µM | HCT-116 55.6 µM | SK-MEL-28 > 100 µM | HOP-62 > 100 µM | M14 > 100 µM | SN12C 64.9 µM | UACC-257 > 100 µM | NCI-H23 93.3 µM | KM12 65.8 µM | DU-145 > 100 µM | RXF 393 > 100 µM | Hs-578T 26.2 µM | 786-0 > 100 µM | SNB-75 > 100 µM | MDA-N > 100 µM | MOLT-4 15.6 µM | MCF7 33.7 µM | IGROV-1 > 100 µM | SF-268 > 100 µM | UO-31 70.5 µM | EKVX 59.2 µM | CCRF-CEM 37.9 µM | NCI-H226 > 100 µM | OVCAR-3 67.6 µM | T47D 66.4 µM

Cc1ncc([N+](=O)[O-])n1CCNC(=O)Cn1ccnc1[N+](=O)[O-]
> 100 µM: HCT-15
inactive: A498 > 100 µM | HL-60 > 100 µM | A549 > 100 µM | UACC-62 > 100 µM | HT-29 > 100 µM | NCI-H460 > 100 µM | K562 > 100 µM | SNB-19 > 100 µM | OVCAR-8 > 100 µM | NCI/ADR-RES > 100 µM | TK-10 > 100 µM | SK-OV-3 > 100 µM | Malme-3M > 100 µM | SK-MEL-5 > 100 µM | PC-3 > 100 µM | MDA-MB-435 > 100 µM | ACHN > 100 µM | SF-539 > 100 µM | BT-549 > 100 µM | HCC 2998 > 100 µM | U-251 > 100 µM | SR > 100 µM | SW-620 > 100 µM | NCI-H522 > 100 µM | MDA-MB-231 > 100 µM | SF-295 > 100 µM | COLO 205 > 100 µM | HCT-116 > 100 µM | SK-MEL-28 > 100 µM | HOP-62 > 100 µM | M14 > 100 µM | SN12C > 100 µM | UACC-257 > 100 µM | CAKI-1 > 100 µM | SK-MEL-2 > 100 µM | NCI-H23 > 100 µM | KM12 > 100 µM | DU-145 > 100 µM | Hs-578T > 100 µM | 786-0 > 100 µM | SNB-75 > 100 µM | MDA-N > 100 µM | MOLT-4 > 100 µM | MCF7 > 100 µM | OVCAR-5 > 100 µM | IGROV-1 > 100 µM | SF-268 > 100 µM | UO-31 > 100 µM | CCRF-CEM > 100 µM | NCI-H226 > 100 µM | OVCAR-3 > 100 µM | T47D > 100 µM

Cc1cc(S(=O)(=O)n2ccnc2O)c(SCCCN(C)C)cc1Cl
inactive: A498 > 100 µM | A549 > 100 µM | UACC-62 > 100 µM | OVCAR-4 > 100 µM | HT-29 > 100 µM | NCI-H460 > 100 µM | K562 > 100 µM | SNB-19 > 100 µM | OVCAR-8 > 100 µM | NCI/ADR-RES > 100 µM | TK-10 > 100 µM | SK-OV-3 > 100 µM | Malme-3M > 100 µM | SK-MEL-5 > 100 µM | PC-3 > 100 µM | MDA-MB-435 > 100 µM | ACHN > 100 µM | SF-539 > 100 µM | BT-549 > 100 µM | HCC 2998 > 100 µM | U-251 > 100 µM | SR > 100 µM | SW-620 > 100 µM | NCI-H522 > 100 µM | MDA-MB-231 > 100 µM | SF-295 > 100 µM | COLO 205 > 100 µM | HCT-116 > 100 µM | SK-MEL-28 > 100 µM | HOP-62 > 100 µM | M14 > 100 µM | SN12C > 100 µM | UACC-257 > 100 µM | CAKI-1 > 100 µM | SK-MEL-2 > 100 µM | NCI-H23 > 100 µM | KM12 > 100 µM | DU-145 > 100 µM | RXF 393 > 100 µM | Hs-578T > 100 µM | 786-0 > 100 µM | MDA-N > 100 µM | MOLT-4 > 100 µM | MCF7 > 100 µM | OVCAR-5 > 100 µM | IGROV-1 > 100 µM | SF-268 > 100 µM | UO-31 > 100 µM | LOX IMVI > 100 µM | EKVX > 100 µM | CCRF-CEM > 100 µM | NCI-H226 > 100 µM | OVCAR-3 > 100 µM | T47D > 100 µM
> 100 µM: HCT-15
